Results from patent US10517889B2, “Modulators of SMAD7 expression” (Ionis Pharmaceuticals, Inc., priority 2017, dated 2019).

How the values were obtained:
[1] = Hematology assays after oral gavage in CD-1 mice (Example 7); format: in vivo; parameters: RBC: unit not given here; settings: 500 mg/kg oral gavage once daily for 4 weeks
Procedure: (§1) Groups of 7-8 week old male CD-1 mice were given an oral gavage dose once daily for 4 weeks of 500 mg/kg of Ionis SMAD7 oligonucleotides. Each group contained 8 mice. One group of male CD-1 mice was administered saline by oral gavage daily.
Blood obtained from all mouse groups was measured by an ADVIA2120i hematology analyzer (Siemens, USA) for measurements of the various blood cells, as well as other hematology markers. None of the Ionis SMAD7 oligonucleotides caused changes in the levels of any of the hematology markers outside the expected range for antisense oligonucleotides.

[2] = Body and organ weights after oral gavage in CD-1 mice (Example 7); format: in vivo; settings: 500 mg/kg oral gavage once daily for 4 weeks, end of study
Procedure: as §1
Final body weights were measured at the end of the study. There was no significant difference in the body weight of the mice treated with antisense oligonucleotide compared to the control.
None of the Ionis SMAD7 oligonucleotides caused any changes in organ weights outside the expected range for antisense oligonucleotides.

[3] = Body and organ weights after subcutaneous administration in beagle dogs (Example 8); format: in vivo; settings: 30 mg/kg subcutaneous days 1, 3, 5, 8, 15, 22, 29, end of study
Procedure: (§2) There were 4 animals per group.
Body weights as well as kidney, spleen, liver (with gall bladder), mesenteric lymph node, heart, and thymus weights were measured at the end of the study. […] Ionis SMAD7 oligonucleotides that caused any changes in organ weights outside the expected range for antisense oligonucleotides were excluded from further studies.

[4] = Plasma chemistry markers after subcutaneous administration in beagle dogs (Example 8); settings: 30 mg/kg subcutaneous days 1, 3, 5, 8, 15, 22, 29, plasma at day 31
Procedure: Groups of 24-25 week old male beagle dogs were injected subcutaneously with 30 mg/kg ION Ionis oligonucleotide. There were 4 animals per group. Dogs were injected every two days for the first week (day 1, 3, and 5) and once weekly thereafter (days 8, 15, 22, and 29). A control group of dogs received subcutaneous injections of PBS. Dogs were sacrificed on day 31 approximately 48 hours after the final dose and organs and plasma were harvested for further analysis.
To evaluate the effect of Ionis SMAD7 oligonucleotides on liver and kidney function, plasma levels of transaminases, albumin, creatine and BUN were measured using an automated clinical chemistry analyzer (Toshiba 200FR Neo chemistry analyzer, Toshiba Co., Japan).

dog SMAD7 mRNA = assay: Pharmacology: dog SMAD7 mRNA expression in liver, kidney, duodenum, ileum and colon after subcutaneous administration in beagle dogs (Example 8); format: in vivo; settings: 30 mg/kg subcutaneous, necropsy, normalized to HPRT1
Procedure: as §2
The pharmacological activity of the Ionis oligonucleotides in dogs was assessed by measuring dog SMAD7 mRNA expression in liver, kidney, duodenum, ileum, and colon at necropsy. All the human ASOs used are complementary to dog SMAD7 mRNA.
Tissue samples from all dogs were analyzed for SMAD7 mRNA expression using the primer probe set RTS34649 (forward sequence […], designated SEQ ID NO: 2740; reverse sequence […], designated SEQ ID NO: 2741; probe sequence […], designated SEQ ID NO: 2742), which was normalized to mRNA levels of the housekeeping gene, HPRT1. One-way ANOVA with Dunnet's comparison test was used for statistical analysis.

[5] = Hematology assays after subcutaneous administration in beagle dogs (Example 8); format: in vivo; settings: 30 mg/kg subcutaneous days 1, 3, 5, 8, 15, 22, 29
Procedure: as §2
Blood samples were collected from the cephalic vein or saphenous vein of each animal. About 0.5 mL of blood samples was put into tubes containing the potassium salt of EDTA. Blood obtained from all dog groups was measured using an ADVIA2120i hematology analyzer for measurements of the various blood cells, as well as other hematology markers.

[6] = tested on: human peripheral blood mononuclear cells (PBMCs); assay: Human PBMC activation assay, cytokine levels (IL-10, IL-6, MCP-1, TNF-α) in supernatant after 24 hours (Example 9); settings: human PBMC supernatant after 24 hours
Procedure: Ionis SMAD7 oligonucleotides were tested in an in vitro assay for potential immunostimulatory properties in an in vitro human peripheral blood mononuclear cell (PBMC) activation assay.
Blood samples were collected from healthy human volunteers in heparinized vials and mixed well. Human PBMCs were isolated by gradient centrifugation using Ficoll-Histopaque. The cells were washed, counted and resuspended in medium. The PBMCs were plated in a 24-well culture plate and various concentrations of oligonucleotides were added to the media. An oligonucleotide historically known to promote an inflammatory response was used as a positive control, whereas an oligonucleotide known not to be pro-inflammatory was used as a negative control. […] The supernatants were collected after 24 hours and analyzed for cytokine levels using MSD platform.

798781 (CGTAAGATTCACAGCA; 3-10-3 cEt gapmer, further chemistry not given here) [compound 798781]
Basophils [1]: 0.02 10^3/μL
Eosinophils [1]: 0.26 10^3/μL
Hematocrit [1]: 52.0%
Hemoglobin [1]: 15.2 g/dL
Lymphocytes [1]: 74.0%
MCH [1]: 15.1 pg
MCHC [1]: 29.1 g/dL
MCV [1]: 51.7 fL
Monocytes [1]: 0.18 10^3/μL
Neutrophils [1]: 18.0%
RBC [1]: 10.1
Reticulocytes [1]: 3.0%
WBC [1]: 5.7 10^3/μL
platelets [1]: 1099 10^3/μL
Body weight [2]: 35 g
Heart weight [2]: 0.17 g
Kidneys weight [2]: 0.64 g
Liver with gallbladder weight [2]: 1.86 g
Spleen weight [2]: 0.09 g
Body weight [3]: 6661 g
Heart weight [3]: 53.4 g
Kidney weight [3]: 40.0 g
Liver weight [3]: 242.9 g
Mesenteric LN weight [3]: 7.8 g
Spleen weight [3]: 26.4 g
Thymus weight [3]: 6.0 g
ALT [4]: 32 IU/L
AST [4]: 45 IU/L
Albumin [4]: 3.0 g/dL
BUN [4]: 19.4 mg/dL
Bilirubin [4]: 0.2 mg/dL
Creatine [4]: 0.9 mg/dL
% inhibition of SMAD7 mRNA expression (compared to control), Distal colon (dog SMAD7 mRNA): 34%
% inhibition of SMAD7 mRNA expression (compared to control), Duodenum (dog SMAD7 mRNA): 0%
% inhibition of SMAD7 mRNA expression (compared to control), Ileum (dog SMAD7 mRNA): 0%
% inhibition of Smad7 mRNA expression (compared to control), Kidney (dog SMAD7 mRNA): 28%
% inhibition of Smad7 mRNA expression (compared to control), Liver (dog SMAD7 mRNA): 0%
% inhibition of SMAD7 mRNA expression (compared to control), Proximal colon (dog SMAD7 mRNA): 26%
Basophils [5]: 0.5%
Eosinophils [5]: 2.7%
Hematocrit [5]: 48%
Hemoglobin [5]: 16.2 g/dL
Lymphocytes [5]: 34%
MCH [5]: 22.3 pg
MCHC [5]: 33.6 g/dL
MCV [5]: 67 fL
Monocytes [5]: 6.5%
Neutrophils [5]: 56%
PLT [5]: 191 ^3/μL
RBC [5]: 7.3 ^6/L
Reticulocytes [5]: 0.6%
WBC [5]: 7.3 ^3/μL
Levels of IL-6 ([6]; 0.0128 μM oligonucleotide): 3.4 pg/mL
Levels of IL-10 ([6]; 0.0128 μM oligonucleotide): 2.2 pg/mL
Levels of MCP-1 ([6]; 0.0128 μM oligonucleotide): 332.9 pg/mL
Levels of TNF-α ([6]; 0.0128 μM oligonucleotide): 2.6 pg/mL
Levels of IL-6 ([6]; 0.064 μM oligonucleotide): 4.9 pg/mL
Levels of IL-10 ([6]; 0.064 μM oligonucleotide): 2.0 pg/mL
Levels of MCP-1 ([6]; 0.064 μM oligonucleotide): 387.0 pg/mL
Levels of TNF-α ([6]; 0.064 μM oligonucleotide): 3.3 pg/mL
Levels of IL-6 ([6]; 0.32 μM oligonucleotide): 6.9 pg/mL
Levels of IL-10 ([6]; 0.32 μM oligonucleotide): 2.3 pg/mL
Levels of MCP-1 ([6]; 0.32 μM oligonucleotide): 483.1 pg/mL
Levels of TNF-α ([6]; 0.32 μM oligonucleotide): 3.8 pg/mL
Levels of IL-6 ([6]; 1.6 μM oligonucleotide): 12.3 pg/mL
Levels of IL-10 ([6]; 1.6 μM oligonucleotide): 3.9 pg/mL
Levels of MCP-1 ([6]; 1.6 μM oligonucleotide): 597.2 pg/mL
Levels of TNF-α ([6]; 1.6 μM oligonucleotide): 5.1 pg/mL
Levels of IL-6 ([6]; 8 μM oligonucleotide): 18.1 pg/mL
Levels of IL-10 ([6]; 8 μM oligonucleotide): 2.9 pg/mL
Levels of MCP-1 ([6]; 8 μM oligonucleotide): 582.7 pg/mL
Levels of TNF-α ([6]; 8 μM oligonucleotide): 6.5 pg/mL
Levels of IL-6 ([6]; 40 μM oligonucleotide): 20.7 pg/mL
Levels of IL-10 ([6]; 40 μM oligonucleotide): 1.4 pg/mL
Levels of MCP-1 ([6]; 40 μM oligonucleotide): 565.8 pg/mL
Levels of TNF-α ([6]; 40 μM oligonucleotide): 6.3 pg/mL
Levels of IL-6 ([6]; 200 μM oligonucleotide): 28.0 pg/mL
Levels of IL-10 ([6]; 200 μM oligonucleotide): 0.6 pg/mL
Levels of MCP-1 ([6]; 200 μM oligonucleotide): 61.3 pg/mL
Levels of TNF-α ([6]; 200 μM oligonucleotide): 4.0 pg/mL

830025 (antisense TTTGTAAATCGAAAGC; 3-10-3 cEt gapmer, further chemistry not given here) [compound 830025]
Basophils [1]: 0.01 10^3/μL
Eosinophils [1]: 0.08 10^3/μL
Hematocrit [1]: 52.4%
Hemoglobin [1]: 15.0 g/dL
Lymphocytes [1]: 77.6%
MCH [1]: 14.9 pg
MCHC [1]: 28.5 g/dL
MCV [1]: 52.3 fL
Monocytes [1]: 0.12 10^3/μL
Neutrophils [1]: 17.5%
RBC [1]: 10.1
Reticulocytes [1]: 3.2%
WBC [1]: 4.7 10^3/μL
platelets [1]: 1236 10^3/μL
Body weight [2]: 35 g
Heart weight [2]: 0.17 g
Kidneys weight [2]: 0.71 g
Liver with gallbladder weight [2]: 1.88 g
Spleen weight [2]: 0.10 g
Body weight [3]: 7403 g
Heart weight [3]: 60.5 g
Kidney weight [3]: 40.3 g
Liver weight [3]: 250.3 g
Mesenteric LN weight [3]: 10.9 g
Spleen weight [3]: 28.9 g
Thymus weight [3]: 8.3 g
ALT [4]: 26 IU/L
AST [4]: 38 IU/L
Albumin [4]: 3.1 g/dL
BUN [4]: 17.9 mg/dL
Bilirubin [4]: 0.1 mg/dL
Creatine [4]: 0.9 mg/dL
% inhibition of SMAD7 mRNA expression (compared to control), Distal colon (dog SMAD7 mRNA): 3%
% inhibition of SMAD7 mRNA expression (compared to control), Duodenum (dog SMAD7 mRNA): 7%
% inhibition of SMAD7 mRNA expression (compared to control), Ileum (dog SMAD7 mRNA): 9%
% inhibition of Smad7 mRNA expression (compared to control), Kidney (dog SMAD7 mRNA): 25%
% inhibition of Smad7 mRNA expression (compared to control), Liver (dog SMAD7 mRNA): 0%
% inhibition of SMAD7 mRNA expression (compared to control), Proximal colon (dog SMAD7 mRNA): 24%
Basophils [5]: 0.3%
Eosinophils [5]: 2.4%
Hematocrit [5]: 43%
Hemoglobin [5]: 13.9 g/dL
Lymphocytes [5]: 34%
MCH [5]: 21.7 pg
MCHC [5]: 32.5 g/dL
MCV [5]: 67 fL
Monocytes [5]: 8.2%
Neutrophils [5]: 55%
PLT [5]: 250 ^3/μL
RBC [5]: 6.4 ^6/L
Reticulocytes [5]: 1.2%
WBC [5]: 5.7 ^3/μL
Levels of IL-6 ([6]; 0.0128 μM oligonucleotide): 3.1 pg/mL
Levels of IL-10 ([6]; 0.0128 μM oligonucleotide): 1.5 pg/mL
Levels of MCP-1 ([6]; 0.0128 μM oligonucleotide): 309.7 pg/mL
Levels of TNF-α ([6]; 0.0128 μM oligonucleotide): 2.8 pg/mL
Levels of IL-6 ([6]; 0.064 μM oligonucleotide): 3.8 pg/mL
Levels of IL-10 ([6]; 0.064 μM oligonucleotide): 1.9 pg/mL
Levels of MCP-1 ([6]; 0.064 μM oligonucleotide): 353.9 pg/mL
Levels of TNF-α ([6]; 0.064 μM oligonucleotide): 2.9 pg/mL
Levels of IL-6 ([6]; 0.32 μM oligonucleotide): 5.0 pg/mL
Levels of IL-10 ([6]; 0.32 μM oligonucleotide): 2.6 pg/mL
Levels of MCP-1 ([6]; 0.32 μM oligonucleotide): 387.7 pg/mL
Levels of TNF-α ([6]; 0.32 μM oligonucleotide): 3.9 pg/mL
Levels of IL-6 ([6]; 1.6 μM oligonucleotide): 12.9 pg/mL
Levels of IL-10 ([6]; 1.6 μM oligonucleotide): 3.6 pg/mL
Levels of MCP-1 ([6]; 1.6 μM oligonucleotide): 554.3 pg/mL
Levels of TNF-α ([6]; 1.6 μM oligonucleotide): 5.4 pg/mL
Levels of IL-6 ([6]; 8 μM oligonucleotide): 17.8 pg/mL
Levels of IL-10 ([6]; 8 μM oligonucleotide): 2.9 pg/mL
Levels of MCP-1 ([6]; 8 μM oligonucleotide): 750.0 pg/mL
Levels of TNF-α ([6]; 8 μM oligonucleotide): 6.7 pg/mL
Levels of IL-6 ([6]; 40 μM oligonucleotide): 19.5 pg/mL
Levels of IL-10 ([6]; 40 μM oligonucleotide): 1.4 pg/mL
Levels of MCP-1 ([6]; 40 μM oligonucleotide): 580.8 pg/mL
Levels of TNF-α ([6]; 40 μM oligonucleotide): 7.6 pg/mL
Levels of IL-6 ([6]; 200 μM oligonucleotide): 30.6 pg/mL
Levels of IL-10 ([6]; 200 μM oligonucleotide): 0.7 pg/mL
Levels of MCP-1 ([6]; 200 μM oligonucleotide): 52.7 pg/mL
Levels of TNF-α ([6]; 200 μM oligonucleotide): 4.9 pg/mL
